The values below come from US6225329A, “Modulators of protein tyrosine phosphatases (PTPases)” (Novo Nordisk A/S, priority 1998, dated 2001).

pKi: −log10 of the molar value.

One assay relates to B cell. The settings on record: compared to T cells; cited from earlier work.
In the next assay the test system is SSTR1. The settings on record: SSTR1 stably expressed in CHO-K1 cells; pertussis toxin-sensitive; cited from earlier work.
Assay [1] relates to osteoblast-like cell line UMR106. The settings on record: cited from earlier work; for stimulation of cell growth relative to vanadate: compared with vanadate.
The subject of a further assay is adipocytes. The settings on record: cited from earlier work.
A further assay relates to skeletal muscle. The settings on record: cited from earlier work.
Another assay has as its system platelets. The settings on record: cited from earlier work.
The next assay deals with T1, PTP1B (Homo sapiens, UniProt P18031).
T1 construct: a truncated form of PTP1B (corresponding to the first 321 amino acids); made in house; host or cells: E. coli
T1 sequence (P18031 1-321): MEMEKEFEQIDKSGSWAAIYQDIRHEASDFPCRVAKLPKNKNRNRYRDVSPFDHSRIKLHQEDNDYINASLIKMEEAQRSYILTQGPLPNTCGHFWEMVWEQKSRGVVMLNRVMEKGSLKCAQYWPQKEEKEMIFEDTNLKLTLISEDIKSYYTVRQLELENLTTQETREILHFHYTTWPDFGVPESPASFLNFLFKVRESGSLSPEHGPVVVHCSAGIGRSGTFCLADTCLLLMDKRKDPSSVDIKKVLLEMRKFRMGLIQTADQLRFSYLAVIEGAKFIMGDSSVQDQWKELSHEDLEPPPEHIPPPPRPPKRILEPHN
Briefly: Inhibition of classical PTP1B (truncated, first 321 amino acids) with p-nitrophenyl phosphate substrate. The class given is biochemical. The settings on record: p-nitrophenyl phosphate 0.16 to 10 mM; 100 mM sodium acetate pH 5.5; 25° C., 60 minutes. On the procedure:
The assay conditions are as follows. […] The buffer used was 100 mM sodium acetate pH 5.5, 50 mM sodium chloride, 0.1% (w/v) bovine serum albumin and 5 mM dithiothreitol (total volume […]). The reaction was started by addition of the enzyme and carried out in microtiter plates at 25° C. for 60 minutes. The reactions are stopped by addition of NaOH. […] Inhibition is expressed as Ki values in μM.

A further assay deals with osteoblast. The settings on record: cited from earlier work.
The conditions of assay [2]: osteoporotics; cited from earlier work.
For assay [3], the system named is osteoblastic acid phosphatase. The settings on record: mitogenic concentrations of fluoride; cited from earlier work.

One may read the pKi as −log10 of the Ki, conventionally taken in molar units.

For `Cc1occc(=O)c1[O-].Cc1occc(=O)c1[O-].[O]=[V+2]` [BMLOV], the “B cell selective apoptosis” value with B cell is “apparent B cell selective apoptosis”.
Regarding somatostatin, the “stimulation of PTPase activity” value in the assay with SSTR1 is recorded as “can stimulate PTPase activity”.
For the compound `O=S(=O)([O-])[O-].[O]=[V+2]` [vanadyl], in [1], the “growth of UMR106 cells” value is reported as “increased the growth” and the “stimulation of cell growth relative to vanadate” value is “stronger stimulators of cell growth than vanadate”.
Regarding pervanadate, the “insulin response when added to whole cells” value in the assay on adipocytes and with skeletal muscle was “almost full insulin response” each time. Besides, the “tyrosine phosphorylation, secretion and aggregation of platelets” value with platelets is “significant increase in tyrosine phosphorylation, secretion and aggregation”. Also, in assay [1], the “growth of UMR106 cells” value is on record as “increased the growth”. Also, the “stimulation of cell growth relative to vanadate” value in [1] is listed as “stronger stimulators of cell growth than vanadate”.
For `[O]=[V]([O-])([O-])[O-]` [vanadate], in [1] (cell alkaline phosphatase activity), the “cell differentiation as measured by cell alkaline phosphatase activity” value is on record as “able to regulate the cell differentiation”. Besides, in [1], the “growth of UMR106 cells” value was “increased the growth”.
On PTP1B, `O=C(O)C(=O)Nc1cc2ccccc2cc1C(=O)O` [Example 2, 3-(Oxalyl-amino)naphthalene-2-carboxylic acid] had a pKi of 5.00.
With `[O]=[V]([O-])([O-])[O-]` [orthovanadate], the “osteoblast proliferation and matrix formation” value with osteoblast was “appears to enhance osteoblast proliferation and matrix formation”.
In the case of `F` [fluoride], in assay [2], the spinal bone density entry is listed as “increase spinal bone density in osteoporotics”. Besides, the “sensitivity of osteoblastic acid phosphatase” value in [3] is given as “highly sensitive”.
